# In US10222368B2 (priority 2012, dated 2019):
# Columns and labels:
# [1] = biological target: KAPPA opioid receptor (Homo sapiens, UniProt P41145); settings: cited from earlier work
# [2] = biological target: T1, mu opiate receptor (MOR) (Rattus norvegicus, UniProt P33535); test: MOR agonist activity using [35S]GTPγS binding assay in striatal membranes; assay type: biochemical; settings: striatal membranes; for MOR agonist activity, [35S]GTPγS binding, FLNA-binding compound as agonist at 0.1 μM: 0.1 μM compound; for MOR agonist activity, [35S]GTPγS binding, FLNA-binding compound as agonist at 0.1 μM / MOR agonist activity, [35S]GTPγS binding, FLNA-binding compound as agonist at 1 μM: Series C-2; for MOR agonist activity, [35S]GTPγS binding, 1 μM + BFNA: 1 μM compound + 1 μM β-FNA (MOR antagonist); for MOR agonist activity, [35S]GTPγS binding, FLNA-binding compound as agonist at 1 μM: 1 μM compound
# T1 construct: from tissue; host or cells: striatal tissue (membrane preparation)
# T1 sequence (P33535 whole entry): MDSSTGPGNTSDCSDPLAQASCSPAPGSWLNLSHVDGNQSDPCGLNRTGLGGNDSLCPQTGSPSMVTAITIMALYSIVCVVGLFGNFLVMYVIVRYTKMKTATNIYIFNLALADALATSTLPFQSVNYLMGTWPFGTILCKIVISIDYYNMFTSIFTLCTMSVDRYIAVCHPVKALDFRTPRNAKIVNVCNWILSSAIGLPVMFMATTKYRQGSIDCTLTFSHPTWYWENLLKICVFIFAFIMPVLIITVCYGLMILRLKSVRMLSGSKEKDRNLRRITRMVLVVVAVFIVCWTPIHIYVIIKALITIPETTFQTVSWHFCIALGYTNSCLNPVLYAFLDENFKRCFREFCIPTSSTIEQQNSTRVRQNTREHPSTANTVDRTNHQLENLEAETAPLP
# [3] = biological target: T2, α7nAChR-FLNA association (Rattus norvegicus, UniProt A0A8I5ZV49); test: Rat frontal cortical synaptosomes treated with Aβ42, anti-FLNA immunoprecipitation / Western blot; assay type: cell-based
# T2 construct: from tissue; host or cells: rat frontal cortical synaptosomes
# T2 sequence (A0A8I5ZV49 1-2647): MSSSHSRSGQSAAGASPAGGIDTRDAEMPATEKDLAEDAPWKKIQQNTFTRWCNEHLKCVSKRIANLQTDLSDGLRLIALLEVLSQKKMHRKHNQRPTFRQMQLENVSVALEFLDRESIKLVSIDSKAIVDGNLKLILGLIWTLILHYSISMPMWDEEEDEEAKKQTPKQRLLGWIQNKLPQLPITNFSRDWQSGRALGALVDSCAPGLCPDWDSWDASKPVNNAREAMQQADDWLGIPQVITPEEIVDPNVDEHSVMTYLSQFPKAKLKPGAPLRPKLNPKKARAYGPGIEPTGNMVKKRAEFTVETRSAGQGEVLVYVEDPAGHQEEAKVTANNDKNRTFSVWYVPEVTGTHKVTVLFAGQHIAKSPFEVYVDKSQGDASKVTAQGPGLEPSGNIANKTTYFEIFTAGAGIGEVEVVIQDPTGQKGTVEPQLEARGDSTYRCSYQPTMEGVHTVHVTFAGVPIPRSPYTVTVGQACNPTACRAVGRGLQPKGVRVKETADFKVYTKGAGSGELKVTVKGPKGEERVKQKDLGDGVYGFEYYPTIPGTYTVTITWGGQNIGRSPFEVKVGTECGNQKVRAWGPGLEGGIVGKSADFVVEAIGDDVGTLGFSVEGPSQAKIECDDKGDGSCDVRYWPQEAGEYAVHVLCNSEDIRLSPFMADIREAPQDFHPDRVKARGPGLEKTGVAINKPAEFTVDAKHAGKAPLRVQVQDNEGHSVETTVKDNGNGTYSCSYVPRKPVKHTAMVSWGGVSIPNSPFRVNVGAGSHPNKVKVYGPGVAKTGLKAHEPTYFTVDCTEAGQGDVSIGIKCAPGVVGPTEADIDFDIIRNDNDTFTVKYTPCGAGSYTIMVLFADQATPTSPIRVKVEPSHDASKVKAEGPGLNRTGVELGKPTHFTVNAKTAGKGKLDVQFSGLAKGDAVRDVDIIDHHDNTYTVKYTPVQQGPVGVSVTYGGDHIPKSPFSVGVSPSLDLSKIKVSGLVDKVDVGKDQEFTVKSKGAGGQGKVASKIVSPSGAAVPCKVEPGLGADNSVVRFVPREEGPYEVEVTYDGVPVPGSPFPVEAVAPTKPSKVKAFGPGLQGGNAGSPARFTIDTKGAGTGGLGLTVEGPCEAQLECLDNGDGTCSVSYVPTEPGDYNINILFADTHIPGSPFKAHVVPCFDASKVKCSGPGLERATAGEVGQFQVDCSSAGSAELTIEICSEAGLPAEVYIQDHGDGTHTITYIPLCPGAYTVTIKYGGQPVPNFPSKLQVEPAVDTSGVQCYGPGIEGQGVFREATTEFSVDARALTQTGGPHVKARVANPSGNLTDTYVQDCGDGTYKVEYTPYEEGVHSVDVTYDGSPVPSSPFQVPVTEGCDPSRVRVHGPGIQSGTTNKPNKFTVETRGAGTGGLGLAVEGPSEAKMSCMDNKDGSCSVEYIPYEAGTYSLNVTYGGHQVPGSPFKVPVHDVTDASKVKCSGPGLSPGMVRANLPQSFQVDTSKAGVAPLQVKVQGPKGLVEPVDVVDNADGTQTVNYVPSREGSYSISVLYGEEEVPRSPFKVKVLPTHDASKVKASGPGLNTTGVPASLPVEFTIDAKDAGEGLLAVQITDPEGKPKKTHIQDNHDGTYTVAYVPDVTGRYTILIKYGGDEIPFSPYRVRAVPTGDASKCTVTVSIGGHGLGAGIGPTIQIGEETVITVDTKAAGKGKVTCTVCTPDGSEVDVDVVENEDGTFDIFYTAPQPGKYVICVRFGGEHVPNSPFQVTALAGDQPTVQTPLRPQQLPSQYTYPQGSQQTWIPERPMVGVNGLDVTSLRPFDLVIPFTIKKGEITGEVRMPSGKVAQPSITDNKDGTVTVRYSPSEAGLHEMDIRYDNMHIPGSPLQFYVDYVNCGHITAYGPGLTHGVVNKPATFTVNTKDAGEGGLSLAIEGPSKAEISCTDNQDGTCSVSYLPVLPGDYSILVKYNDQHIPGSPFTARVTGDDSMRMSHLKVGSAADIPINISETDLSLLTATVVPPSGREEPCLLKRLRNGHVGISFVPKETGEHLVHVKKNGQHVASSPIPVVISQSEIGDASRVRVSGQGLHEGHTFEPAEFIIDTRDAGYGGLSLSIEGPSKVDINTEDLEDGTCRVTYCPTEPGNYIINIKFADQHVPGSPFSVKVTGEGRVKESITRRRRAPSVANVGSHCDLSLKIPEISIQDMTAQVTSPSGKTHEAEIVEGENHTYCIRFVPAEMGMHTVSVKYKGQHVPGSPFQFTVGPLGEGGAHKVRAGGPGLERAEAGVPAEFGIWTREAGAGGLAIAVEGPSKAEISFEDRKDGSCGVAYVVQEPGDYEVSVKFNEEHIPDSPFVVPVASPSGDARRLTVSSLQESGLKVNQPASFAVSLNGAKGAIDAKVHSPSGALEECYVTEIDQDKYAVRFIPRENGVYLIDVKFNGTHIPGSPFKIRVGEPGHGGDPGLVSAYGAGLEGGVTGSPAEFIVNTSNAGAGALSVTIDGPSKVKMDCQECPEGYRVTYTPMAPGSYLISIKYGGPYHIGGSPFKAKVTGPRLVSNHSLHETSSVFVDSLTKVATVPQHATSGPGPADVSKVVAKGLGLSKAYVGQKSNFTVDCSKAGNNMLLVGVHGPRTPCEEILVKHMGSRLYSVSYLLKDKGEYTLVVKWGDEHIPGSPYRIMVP
# Excerpt: The α7nAChR-FLNA complexes in the solubilized synaptosomes were immunoprecipitated with immobilized anti-FLNA and the α7nAChR and FLNA levels in the anti-FLNA immunoprecipitates determined by Western blotting (FIG. 14A) and quantified by densitometry for illustrative compounds (FIG. 14B). n=3. […] The letter designation “M” that accompanies many of the “C-series” compounds is omitted from FIG. 14, the remaining figures and most discussions of the figures and compounds hereinafter for ease in expression. Structural formulas of the compounds used in this and the other figures are provided hereinafter.
# (§1) The complexes in the solubilized synaptosomes, and α7nAChR, TLR4 and FLNA levels in the anti-FLNA immunoprecipitates were determined by Western blotting (FIG. 15A) in which numerals outside of and to the left of the blots are as discussed before. Amounts present in the blots were quantified by densitometry (FIG. 15B). […] Structural formulas of the compounds used in this and the other figures are provided hereinafter.
# [4] = biological target: T3, human FLNA-α7nAChR complex (Homo sapiens, UniProt P21333); test: Supplemental ELISA for FLNA-α7nAChR complex (Example 8: specificity, accuracy, precision, linearity, detection limit)
# T3 construct: To determine the levels of FLNA-α7nAChR, FLNA-TLR4 and α7nAChR-Aβ42 complexes in the lymphocytes; endogenous in cells; host or cells: lymphocytes from venous blood of AD patients and control subjects (ex vivo)
# Procedure: The following ELISA method activities were carried out to quantify FLNA-α7nAChR complex: specificity; accuracy; precision/repeatability; linearity and range; and, detection limit.
# To assure ELISA assay uniquely identifies human FLNA-α7nAChR complex, the cross reactivity to human FLNA-α7nAChR complex, unrelated human proteins human leptin and human chorionic gonadotropin (hLeptin and hCG) were added to the lymphocyte lysate preparations and the ELISA assay performed.
# To assure the ELISA assay returns a value that is representative of the “true” value, a range of concentrations of recombinant human leptin was spiked into lysate sample with FLNA-α7nAChR complex. Recovery percent concentrations were measured and accuracy calculated.
# To assure that three measurements of a single lysate sample (e.g., sample AD#63) made in the same assay provide the same result, three samples were measured using the ELISA assay, three times on the same day using the same methods (repeatability). Within-day RSD was calculated.
# To assure that the response is linear over the range of expected sample values, OD 450 of different concentrations of human FLNA-α7nAChR complex were detected using the ELISA assay. […]
# [5] = biological target: T4, TLR4/FLNA (Rattus norvegicus, UniProt A0A8I5ZV49); test: Rat frontal cortical synaptosomes treated with Aβ42, anti-FLNA immunoprecipitation / Western blot; assay type: cell-based; settings: 1 or 10 nM compound, simultaneously or 10 min prior to 0.1 μM Aβ42; Dunnett's test
# T4 construct: from tissue; host or cells: rat frontal cortical synaptosomes
# T4 sequence (A0A8I5ZV49 1-2647): as above
# Procedure: as §1
# Chain of KAPPA opioid receptor (P41145 whole entry): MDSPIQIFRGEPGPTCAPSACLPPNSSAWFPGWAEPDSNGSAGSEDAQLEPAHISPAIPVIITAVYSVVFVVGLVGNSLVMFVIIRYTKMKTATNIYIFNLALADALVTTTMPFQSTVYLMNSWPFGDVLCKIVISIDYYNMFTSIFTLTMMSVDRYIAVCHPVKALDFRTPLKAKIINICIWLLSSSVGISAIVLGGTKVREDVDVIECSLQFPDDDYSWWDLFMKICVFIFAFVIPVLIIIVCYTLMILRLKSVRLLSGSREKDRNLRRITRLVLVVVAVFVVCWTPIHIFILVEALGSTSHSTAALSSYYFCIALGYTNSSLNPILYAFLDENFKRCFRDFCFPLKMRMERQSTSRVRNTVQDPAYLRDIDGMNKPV
Compound,"MOR agonist activity, [35S]GTPγS binding, FLNA-binding compound as agonist at 0.1 μM [2]","MOR agonist activity, [35S]GTPγS binding, 1 μM + BFNA [2]","MOR agonist activity, [35S]GTPγS binding, FLNA-binding compound as agonist at 1 μM [2]",further results
Oc1ccc2c3c1O[C@H]1c4[nH]c5c(c4C[C@@]4(O)C(C2)N(CC2CC2)CC[C@]314)C[C@@]1(O)[C@H]2Cc3ccc(O)c4c3[C@@]1(CCN2CC1CC1)[C@H]5O4 [Binaltrophimine],,,,"Opioid receptor activity and relative potency, KAPPA [1]: − −"
O=C1CNC2(CCNCC2)N1Cc1ccccc1 [Compound C0114M],114.0%,35.9%,144.3%,"Effect on Aβ42-induced α7nAChR-FLNA association (in words) ([3]; 0.1 or 1 nM compound, simultaneously with or 10 min prior to Aβ42): reduce α7nAChR-FLNA association"
hLeptin: unrelated human proteins human leptin and human chorionic gonadotropin (hLeptin and hCG); Human recombinant leptin,,,,"Normalized OD, Average ([4]; 5 μg protein per well instead of lymphocyte lysate): 0.02; % Cross reactivity ([4]; 5 μg protein per well, relative to 5 μg AD#63 lysate): 4.3%"
O=C1CNC2(CCN(CC3CC3)CC2)N1Cc1ccccc1 [Compound C0124M],252.0%,61.4%,305.1%,"TLR4/FLNA ratio versus Aβ42 alone (in words) [5]: statistically different from Aβ42 alone; Effect on Aβ42-induced α7nAChR-FLNA association (in words) ([3]; 1 or 10 nM compound, simultaneously or 10 min prior to 0.1 μM Aβ42): reduce α7nAChR-FLNA association"
